Reference: patent publication US7422886B2, “Method for determining modulation of P110Δ activity” (Ludwig Institute for Cancer Research, priority 1996, dated 2008)

How the values were obtained:
p110α/p85α = p110α/p85α (Bos taurus, UniProt P32871); experiment: Lipid kinase assay of drug effects on p110α/p85α; assay type: biochemical
Experimental: (§1) Lipid kinase activity was performed essentially as described by Whitman et al. (1985). Lipid kinase assay buffer was 20 mM Tris HCl pH 7.4, 100 mM NaCl and 0.5 mM EGTA. Lipids were purchased from Sigma. The final concentration of ATP and Mg^2+ in the assay were routinely 0.5 and 3.5 mM, respectively, while lipids were used at 0.2-0.4 mM concentration. Unless otherwise indicated, kinase reaction was for 10 min at 37° C. The solvent for TLC separation of reaction products was propan-1-ol/2 M acetic acid/5 M H3PO4 (65:35:1). Assays of drug effects on the kinase were performed using PtdIns as substrate in the presence of 40 μM ATP (final) for 10 min at 25° C.; all tubes contained 1% DMSO. Activity was quantified by phosphorimager (Molecular Dynamics) analysis of TLC-separated lipid products.

p110δ/p85α = p110δ/p85α (Homo sapiens, UniProt O00329, S675R); experiment: Lipid kinase assay of drug effects on p110δ/p85α; assay type: biochemical; conditions: PtdIns substrate, 40 μM ATP, 10 min at 25° C., 1% DMSO; read-out: IC50, inhibition of lipid kinase activity
Experimental: as §1

Chain of p110δ/p85α (O00329 whole entry S675R): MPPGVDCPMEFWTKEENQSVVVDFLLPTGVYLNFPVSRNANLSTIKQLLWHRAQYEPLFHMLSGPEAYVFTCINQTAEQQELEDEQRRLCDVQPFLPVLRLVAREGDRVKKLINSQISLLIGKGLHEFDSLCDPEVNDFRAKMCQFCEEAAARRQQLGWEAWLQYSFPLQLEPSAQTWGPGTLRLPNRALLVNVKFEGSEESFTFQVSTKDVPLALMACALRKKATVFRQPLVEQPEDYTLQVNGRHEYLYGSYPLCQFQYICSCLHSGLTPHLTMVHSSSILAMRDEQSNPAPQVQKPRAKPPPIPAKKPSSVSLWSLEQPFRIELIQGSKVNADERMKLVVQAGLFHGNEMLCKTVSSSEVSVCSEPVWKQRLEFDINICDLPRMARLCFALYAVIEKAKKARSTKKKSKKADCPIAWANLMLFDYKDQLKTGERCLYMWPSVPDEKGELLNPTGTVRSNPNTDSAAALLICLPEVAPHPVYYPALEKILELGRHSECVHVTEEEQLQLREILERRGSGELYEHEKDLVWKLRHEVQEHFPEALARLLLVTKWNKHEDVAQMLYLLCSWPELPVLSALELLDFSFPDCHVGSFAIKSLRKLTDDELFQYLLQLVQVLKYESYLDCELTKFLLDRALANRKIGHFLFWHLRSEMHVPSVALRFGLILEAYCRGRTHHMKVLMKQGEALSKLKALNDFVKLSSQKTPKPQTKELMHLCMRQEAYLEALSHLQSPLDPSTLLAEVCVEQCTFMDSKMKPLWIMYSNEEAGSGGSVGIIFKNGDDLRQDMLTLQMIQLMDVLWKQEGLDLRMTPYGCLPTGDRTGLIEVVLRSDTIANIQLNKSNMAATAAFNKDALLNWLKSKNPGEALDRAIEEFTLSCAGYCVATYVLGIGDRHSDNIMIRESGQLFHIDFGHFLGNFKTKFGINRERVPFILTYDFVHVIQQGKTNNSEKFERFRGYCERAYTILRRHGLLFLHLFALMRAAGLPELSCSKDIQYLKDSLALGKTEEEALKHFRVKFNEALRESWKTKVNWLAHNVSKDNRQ
Chain of p110δ/p85α (P27986 whole entry partner): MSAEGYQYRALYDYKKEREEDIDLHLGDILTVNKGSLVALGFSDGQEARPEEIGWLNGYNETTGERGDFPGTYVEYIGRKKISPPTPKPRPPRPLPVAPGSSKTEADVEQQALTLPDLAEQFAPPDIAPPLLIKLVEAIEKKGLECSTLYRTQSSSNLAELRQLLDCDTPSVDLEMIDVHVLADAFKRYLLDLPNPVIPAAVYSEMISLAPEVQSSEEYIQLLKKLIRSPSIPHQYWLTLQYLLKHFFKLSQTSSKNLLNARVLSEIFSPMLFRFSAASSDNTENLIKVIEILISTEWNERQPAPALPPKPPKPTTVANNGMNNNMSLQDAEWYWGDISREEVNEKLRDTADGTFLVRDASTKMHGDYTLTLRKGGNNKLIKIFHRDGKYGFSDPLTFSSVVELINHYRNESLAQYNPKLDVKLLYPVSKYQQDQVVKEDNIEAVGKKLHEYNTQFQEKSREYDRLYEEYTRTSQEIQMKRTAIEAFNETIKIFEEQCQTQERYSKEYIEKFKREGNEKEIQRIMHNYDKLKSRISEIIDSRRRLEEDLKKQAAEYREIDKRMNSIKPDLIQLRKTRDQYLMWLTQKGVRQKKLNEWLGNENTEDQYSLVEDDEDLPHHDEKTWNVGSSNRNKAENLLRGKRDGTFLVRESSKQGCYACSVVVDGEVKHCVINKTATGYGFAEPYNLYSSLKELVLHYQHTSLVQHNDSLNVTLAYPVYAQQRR
Chain of p110α/p85α (P32871 whole entry): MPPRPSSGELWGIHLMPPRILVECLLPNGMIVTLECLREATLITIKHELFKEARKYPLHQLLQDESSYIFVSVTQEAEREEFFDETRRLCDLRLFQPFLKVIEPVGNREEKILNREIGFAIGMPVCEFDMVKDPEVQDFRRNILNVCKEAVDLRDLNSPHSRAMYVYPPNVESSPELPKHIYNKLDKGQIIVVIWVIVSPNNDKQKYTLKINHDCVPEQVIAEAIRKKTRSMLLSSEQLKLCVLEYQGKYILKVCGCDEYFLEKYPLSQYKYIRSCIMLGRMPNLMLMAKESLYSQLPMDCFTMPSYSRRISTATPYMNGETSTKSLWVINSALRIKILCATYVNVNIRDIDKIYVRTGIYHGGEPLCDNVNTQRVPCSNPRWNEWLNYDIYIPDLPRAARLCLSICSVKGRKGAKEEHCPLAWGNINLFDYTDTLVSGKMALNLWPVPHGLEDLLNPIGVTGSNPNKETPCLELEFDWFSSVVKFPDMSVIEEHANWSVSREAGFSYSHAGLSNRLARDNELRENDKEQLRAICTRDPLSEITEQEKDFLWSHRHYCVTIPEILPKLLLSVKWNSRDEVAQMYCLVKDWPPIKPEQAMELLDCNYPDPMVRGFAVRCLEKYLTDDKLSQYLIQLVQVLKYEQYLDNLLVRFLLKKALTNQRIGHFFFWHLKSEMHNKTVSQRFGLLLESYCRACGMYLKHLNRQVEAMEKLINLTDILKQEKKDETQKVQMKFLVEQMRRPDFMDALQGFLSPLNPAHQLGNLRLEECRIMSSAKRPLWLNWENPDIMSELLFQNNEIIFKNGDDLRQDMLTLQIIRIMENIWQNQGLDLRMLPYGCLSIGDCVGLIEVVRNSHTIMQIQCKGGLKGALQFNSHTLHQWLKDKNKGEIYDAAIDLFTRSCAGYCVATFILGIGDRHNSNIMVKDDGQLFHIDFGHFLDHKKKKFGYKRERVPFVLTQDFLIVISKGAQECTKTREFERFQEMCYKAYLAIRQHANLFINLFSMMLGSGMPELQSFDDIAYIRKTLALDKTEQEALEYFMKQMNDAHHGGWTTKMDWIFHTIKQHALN

Row | IC50 (p110δ/p85α) [nM] | Compound | IC50 (p110α/p85α) [nM]
1 | – | COC[C@H]1OC(=O)c2coc3c2[C@@]1(C)C1=C(C3=O)[C@@H]2CCC(=O)[C@@]2(C)C[C@H]1OC(C)=O [wortmannin] | 5
2 | 500 | O=c1cc(N2CCOCC2)oc2c(-c3ccccc3)cccc12 [LY294002] | –
